Laboratory results reported in ChEMBL document CHEMBL1139590, “Design, synthesis, and biological evaluation of novel human 5'-deoxy-5'-methylthioadenosine phosphorylase (MTAP) substrates” (Bioorg Med Chem Lett, 2005).

Experiments:
[1] = molecular target: T1, S-methyl-5'-thioadenosine phosphorylase (Homo sapiens) (UniProt Q13126); test: Kcat against human methylthioadenosine phosphorylase expressed in Escherichia coli BL21 DE3 cells
T1 sequence (whole entry): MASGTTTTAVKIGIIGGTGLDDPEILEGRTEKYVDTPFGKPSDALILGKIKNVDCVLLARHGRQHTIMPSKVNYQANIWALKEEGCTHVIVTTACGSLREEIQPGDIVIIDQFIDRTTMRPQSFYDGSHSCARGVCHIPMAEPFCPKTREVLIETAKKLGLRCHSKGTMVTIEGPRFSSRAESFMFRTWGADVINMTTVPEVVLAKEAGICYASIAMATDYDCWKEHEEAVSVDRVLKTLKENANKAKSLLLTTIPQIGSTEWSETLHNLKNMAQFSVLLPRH

[2] = molecular target: T1, S-methyl-5'-thioadenosine phosphorylase (Homo sapiens); test: Ratio of Kcat to Km against human Methylthioadenosine phosphorylase
[3] = substrate: CC(C)(C)SC[C@H]1O[C@@H](n2cnc3c(N)ncnc32)[C@H](O)[C@@H]1O; test: (§1) Km against human methylthioadenosine phosphorylase expressed in Escherichia coli BL21 DE3 cells
[4] = substrate: CC(C)CCSC[C@H]1O[C@@H](n2cnc3c(N)ncnc32)[C@H](O)[C@@H]1O; test: as §1
[5] = substrate: CC(C)CSC[C@H]1O[C@@H](n2cnc3c(N)ncnc32)[C@H](O)[C@@H]1O; test: as §1
[6] = substrate: CCC(C)CSC[C@H]1O[C@@H](n2cnc3c(N)ncnc32)[C@H](O)[C@@H]1O; test: as §1
[7] = substrate: CCCCSC[C@H]1O[C@@H](n2cnc3c(N)ncnc32)[C@H](O)[C@@H]1O; test: as §1
[8] = substrate: CCSC[C@H]1O[C@@H](n2cnc3c(N)ncnc32)[C@H](O)[C@@H]1O; test: as §1
[9] = substrate: COc1ccc(SC[C@H]2O[C@@H](n3cnc4c(N)ncnc43)[C@H](O)[C@@H]2O)cc1; test: as §1
[10] = substrate: CSC[C@@H]1C[C@@H](O)[C@H](n2cnc3c(N)ncnc32)O1; test: as §1
[11] = substrate: CSC[C@H]1O[C@@H](n2cnc3c(N)ncnc32)C(N=[N+]=[N-])[C@@H]1O; test: as §1
[12] = substrate: CSC[C@H]1O[C@@H](n2cnc3c(N)ncnc32)C[C@@H]1O; test: as §1
[13] = substrate: CSC[C@H]1O[C@@H](n2cnc3c(N)ncnc32)[C@H](N)[C@@H]1O; test: as §1
[14] = substrate: C[C@H]1O[C@@H](n2cnc3c(N)ncnc32)[C@H](O)[C@@H]1O; test: as §1
[15] = substrate: Cc1ccc(SC[C@H]2O[C@@H](n3cnc4c(N)ncnc43)[C@H](O)[C@@H]2O)cc1; test: as §1
[16] = substrate: Cc1cccc(SC[C@H]2O[C@@H](n3cnc4c(N)ncnc43)[C@H](O)[C@@H]2O)c1; test: as §1
[17] = substrate: Cc1ccccc1SC[C@H]1O[C@@H](n2cnc3c(N)ncnc32)[C@H](O)[C@@H]1O; test: as §1
[18] = substrate: Nc1ncnc2c1ncn2[C@@H]1O[C@H](CCc2ccccc2)[C@@H](O)[C@H]1O; test: as §1
[19] = substrate: Nc1ncnc2c1ncn2[C@@H]1O[C@H](CNc2ccccc2)[C@@H](O)[C@H]1O; test: as §1
[20] = substrate: Nc1ncnc2c1ncn2[C@@H]1O[C@H](COc2ccccc2)[C@@H](O)[C@H]1O; test: as §1
[21] = substrate: Nc1ncnc2c1ncn2[C@@H]1O[C@H](CSC2CCCC2)[C@@H](O)[C@H]1O; test: as §1
[22] = substrate: Nc1ncnc2c1ncn2[C@@H]1O[C@H](CSC2CCCCC2)[C@@H](O)[C@H]1O; test: as §1
[23] = substrate: Nc1ncnc2c1ncn2[C@@H]1O[C@H](CSCCO)[C@@H](O)[C@H]1O; test: as §1
[24] = substrate: Nc1ncnc2c1ncn2[C@@H]1O[C@H](CSCCc2ccccc2)[C@@H](O)[C@H]1O; test: as §1
[25] = substrate: Nc1ncnc2c1ncn2[C@@H]1O[C@H](CSCCc2ccccn2)[C@@H](O)[C@H]1O; test: as §1
[26] = substrate: Nc1ncnc2c1ncn2[C@@H]1O[C@H](CSCc2ccccc2)[C@@H](O)[C@H]1O; test: as §1
[27] = substrate: Nc1ncnc2c1ncn2[C@@H]1O[C@H](CSc2ccc(C(F)(F)F)cc2)[C@@H](O)[C@H]1O; test: as §1
[28] = substrate: Nc1ncnc2c1ncn2[C@@H]1O[C@H](CSc2ccc3ccccc3n2)[C@@H](O)[C@H]1O; test: as §1
[29] = substrate: Nc1ncnc2c1ncn2[C@@H]1O[C@H](CSc2ccccc2)[C@@H](O)[C@H]1O; test: as §1
[30] = substrate: Nc1ncnc2c1ncn2[C@@H]1O[C@H](CSc2ccccn2)[C@@H](O)[C@H]1O; test: as §1
[31] = substrate: Nc1ncnc2c1ncn2[C@@H]1O[C@H](CSc2ccncc2)[C@@H](O)[C@H]1O; test: as §1
[32] = substrate: Nc1ncnc2c1ncn2[C@@H]1O[C@H](CSc2ncc[nH]2)[C@@H](O)[C@H]1O; test: as §1
[33] = substrate: Nc1ncnc2c1ncn2[C@@H]1O[C@H](CSc2nccs2)[C@@H](O)[C@H]1O; test: as §1

Molecule `CC(C)CSC[C@H]1O[C@@H](n2cnc3c(N)ncnc32)[C@H](O)[C@@H]1O` has a K cat [1] of 2.3 s⁻¹ and a Ratio [2] of 0.74 µM⁻¹ s⁻¹.

`Nc1ncnc2c1ncn2[C@@H]1O[C@H](CCc2ccccc2)[C@@H](O)[C@H]1O` was tested, and the K cat [1] was 4.6 s⁻¹ and the Ratio [2] was 3.5 µM⁻¹ s⁻¹.

`CC(C)CCSC[C@H]1O[C@@H](n2cnc3c(N)ncnc32)[C@H](O)[C@@H]1O` was tested, and the K cat [1] was 5.5 s⁻¹ and the Ratio [2] was 1.96 µM⁻¹ s⁻¹.

With `CSC[C@H]1O[C@@H](n2cnc3c(N)ncnc32)[C@H](O)[C@@H]1O` (stereo in doubt; 7) the K cat [1] was 0.0065 s⁻¹ and the Ratio [2] was 0.0001 µM⁻¹ s⁻¹.

In the case of `Nc1ncnc2c1ncn2[C@@H]1O[C@H](CSc2ncc[nH]2)[C@@H](O)[C@H]1O`, the K cat [1] is reported as 3.8 s⁻¹ and the Ratio [2] is reported as 0.42 µM⁻¹ s⁻¹.

Work on `Nc1ncnc2c1ncn2[C@@H]1O[C@H](CSc2ccc3ccccc3n2)[C@@H](O)[C@H]1O` yielded a K cat [1] of 3.16 s⁻¹ and a Ratio [2] of 0.46 µM⁻¹ s⁻¹.

`Cc1cccc(SC[C@H]2O[C@@H](n3cnc4c(N)ncnc43)[C@H](O)[C@@H]2O)c1` was tested, and the K cat [1] was 2.4 s⁻¹ and the Ratio [2] was 1.2 µM⁻¹ s⁻¹.

`Nc1ncnc2c1ncn2[C@@H]1O[C@H](CSCCO)[C@@H](O)[C@H]1O` gave a K cat [1] of 1.46 s⁻¹ and a Ratio [2] of 0.058 µM⁻¹ s⁻¹.

In the case of `CCC(C)CSC[C@H]1O[C@@H](n2cnc3c(N)ncnc32)[C@H](O)[C@@H]1O` (stereo partly drawn), the K cat [1] is reported as 4.2 s⁻¹ and the Ratio [2] is reported as 0.84 µM⁻¹ s⁻¹.

`CSC[C@H]1O[C@@H](n2cnc3c(N)ncnc32)C[C@@H]1O` was tested, and the K cat [1] was 0.28 s⁻¹ and the Ratio [2] was 0.09 µM⁻¹ s⁻¹.

Work on `Nc1ncnc2c1ncn2[C@@H]1O[C@H](CSCCc2ccccc2)[C@@H](O)[C@H]1O` yielded a K cat [1] of 2.14 s⁻¹ and a Ratio [2] of 0.43 µM⁻¹ s⁻¹.

In the case of `Cc1ccc(SC[C@H]2O[C@@H](n3cnc4c(N)ncnc43)[C@H](O)[C@@H]2O)cc1`, the K cat [1] is reported as 1.4 s⁻¹ and the Ratio [2] is reported as 0.93 µM⁻¹ s⁻¹.

`Nc1ncnc2c1ncn2[C@@H]1O[C@H](CSC2CCCC2)[C@@H](O)[C@H]1O` gave a K cat [1] of 1.5 s⁻¹ and a Ratio [2] of 0.47 µM⁻¹ s⁻¹.

For `Nc1ncnc2c1ncn2[C@@H]1O[C@H](CNc2ccccc2)[C@@H](O)[C@H]1O`, the K cat [1] was 2.02 s⁻¹ and the Ratio [2] was 0.24 µM⁻¹ s⁻¹.

With `Nc1ncnc2c1ncn2[C@@H]1O[C@H](CSc2ccncc2)[C@@H](O)[C@H]1O` the K cat [1] was 0.23 s⁻¹ and the Ratio [2] was 0.26 µM⁻¹ s⁻¹.

`Nc1ncnc2c1ncn2[C@@H]1O[C@H](CSc2nccs2)[C@@H](O)[C@H]1O` showed a K cat [1] of 2.49 s⁻¹ and a Ratio [2] of 0.73 µM⁻¹ s⁻¹.

Molecule `Cc1ccccc1SC[C@H]1O[C@@H](n2cnc3c(N)ncnc32)[C@H](O)[C@@H]1O` has a K cat [1] of 0.18 s⁻¹ and a Ratio [2] of 0.03 µM⁻¹ s⁻¹.

With `COc1ccc(SC[C@H]2O[C@@H](n3cnc4c(N)ncnc43)[C@H](O)[C@@H]2O)cc1` the K cat [1] was 0.8 s⁻¹ and the Ratio [2] was 0.11 µM⁻¹ s⁻¹.

`CSC[C@H]1O[C@@H](n2cnc3c(N)ncnc32)C(F)[C@@H]1O` (stereo partly drawn) was tested, and the K cat [1] was 0.0004 s⁻¹.

`Nc1ncnc2c1ncn2[C@@H]1O[C@H](COc2ccccc2)[C@@H](O)[C@H]1O` gave a K cat [1] of 1.11 s⁻¹ and a Ratio [2] of 0.09 µM⁻¹ s⁻¹.

In the case of `CSC[C@H]1O[C@@H](n2cnc3c(N)ncnc32)[C@H](O)[C@@H]1O` (stereo in doubt; 1), the K cat [1] is reported as 4.6 s⁻¹ and the Ratio [2] is reported as 3.2 µM⁻¹ s⁻¹.

`CCCCSC[C@H]1O[C@@H](n2cnc3c(N)ncnc32)[C@H](O)[C@@H]1O` gave a K cat [1] of 5.9 s⁻¹ and a Ratio [2] of 1.48 µM⁻¹ s⁻¹.

With `Nc1ncnc2c1ncn2[C@@H]1O[C@H](CSc2ccc(C(F)(F)F)cc2)[C@@H](O)[C@H]1O` the K cat [1] was 0.3 s⁻¹ and the Ratio [2] was 0.17 µM⁻¹ s⁻¹.

Molecule `CSC[C@@H]1C[C@@H](O)[C@H](n2cnc3c(N)ncnc32)O1` has a K cat [1] of 0.004 s⁻¹ and a Ratio [2] of 0.001 µM⁻¹ s⁻¹.

With `Nc1ncnc2c1ncn2[C@@H]1O[C@H](CSC2CCCCC2)[C@@H](O)[C@H]1O` the K cat [1] was 1.57 s⁻¹ and the Ratio [2] was 0.45 µM⁻¹ s⁻¹.

`CCSC[C@H]1O[C@@H](n2cnc3c(N)ncnc32)[C@H](O)[C@@H]1O` was tested, and the K cat [1] was 2.9 s⁻¹ and the Ratio [2] was 1.6 µM⁻¹ s⁻¹.

In the case of `CC(C)(C)SC[C@H]1O[C@@H](n2cnc3c(N)ncnc32)[C@H](O)[C@@H]1O`, the K cat [1] is reported as 0.85 s⁻¹ and the Ratio [2] is reported as 0.05 µM⁻¹ s⁻¹.

`Nc1ncnc2c1ncn2[C@@H]1O[C@H](CSCc2ccccc2)[C@@H](O)[C@H]1O` was tested, and the K cat [1] was 2.5 s⁻¹ and the Ratio [2] was 0.53 µM⁻¹ s⁻¹.

`CSC[C@H]1O[C@@H](n2cnc3c(N)ncnc32)[C@H](N)[C@@H]1O` showed a K cat [1] of 0.67 s⁻¹ and a Ratio [2] of 0.022 µM⁻¹ s⁻¹.

For `C[C@H]1O[C@@H](n2cnc3c(N)ncnc32)[C@H](O)[C@@H]1O`, the K cat [1] was 4.8 s⁻¹ and the Ratio [2] was 0.8 µM⁻¹ s⁻¹.

With `CSC[C@H]1O[C@@H](n2cnc3c(N)ncnc32)C(N=[N+]=[N-])[C@@H]1O` (stereo partly drawn) the K cat [1] was 0.04 s⁻¹ and the Ratio [2] was 1.1e-05 µM⁻¹ s⁻¹.

For `Nc1ncnc2c1ncn2[C@@H]1O[C@H](CSCCc2ccccn2)[C@@H](O)[C@H]1O`, the K cat [1] was 1.01 s⁻¹ and the Ratio [2] was 0.09 µM⁻¹ s⁻¹.

Molecule `Nc1ncnc2c1ncn2[C@@H]1O[C@H](CSc2ccccn2)[C@@H](O)[C@H]1O` has a K cat [1] of 3.44 s⁻¹ and a Ratio [2] of 0.66 µM⁻¹ s⁻¹.

`Nc1ncnc2c1ncn2[C@@H]1O[C@H](CSc2ccccc2)[C@@H](O)[C@H]1O` gave a K cat [1] of 1.5 s⁻¹ and a Ratio [2] of 0.5 µM⁻¹ s⁻¹.

B1: S-methyl-5'-thioadenosine phosphorylase (Homo sapiens), Q13126 (protein)
chain: T1 sequence (whole entry)
In the case of B1, the Km [3] is reported as 17 µM, the Km [4] is reported as 2.8 µM and the Km [5] is reported as 3.1 µM. For the same molecule, the Km [6] was 5 µM, the Km [7] was 4 µM and the Km [8] was 1.8 µM. The Km [9] was 7 µM, the Km [10] was 3.9 µM and the Km [11] was 3600 µM. It also gave a Km [12] of 3.1 µM, a Km [13] of 30 µM and a Km [14] of 6 µM. For the same molecule, the Km [15] was 1.5 µM, the Km [16] was 2 µM and the Km [17] was 5.6 µM. It also gave a Km [18] of 1.3 µM, a Km [19] of 8.5 µM and a Km [20] of 12 µM. For the same molecule, the Km [21] was 3.2 µM, the Km [22] was 3.5 µM and the Km [23] was 25 µM. It also gave a Km [24] of 5 µM, a Km [25] of 10.2 µM and a Km [26] of 4.6 µM. For the same molecule, the Km [27] was 1.7 µM, the Km [28] was 6.9 µM and the Km [29] was 3 µM. The Km [30] was 5.2 µM, the Km [31] was 0.88 µM and the Km [32] was 9 µM. The Km [33] was 3.4 µM.
